Series [1] has as its system human ectocervical tissue. To be noted: preliminary studies, data not shown.
Series [2] relates to normal vaginal microflora. Conditions: preliminary studies, data not shown.
Series [3] in a line: Oxidation of RC-101 by hydrogen peroxide, HPLC. To be noted: EDTA 1.0 μg/mL, H2O2 0.002%, RC-101 500 μg/mL, HPLC over time.
Procedure: For all pre-formulation studies described below, triplicate solutions of RC-101 (500 μg/mL) were prepared in either water or aqueous buffer solution. Thermal degradation studies were conducted at 25, 37, and 65°C for a minimum period of 1 week. The effect of pH on the stability of RC-101 was evaluated over the pH range from 3 to 12 using 10 mM phosphate buffer solutions, at low (50 mmol/kg) and high (500 mmol/kg) ionic strength. Oxidation of RC-101 was evaluated by exposing a solution of RC-101 to hydrogen peroxide (H2O2) at concentrations of 3.0, 0.08, and 0.002% (v/v). The high H2O2 concentration (3.0%) was selected as a forced degradation concentration. […] Protection against oxidation was investigated by the addition of antioxidants commonly used in pharmaceutical products. The antioxidants used in this study were: methionine (95.2 μg/mL or 250 μg/mL), cysteine (95.2 μg/mL), glutathione (90.9 μg/mL), vitamin E TPGS (90.9 μg/mL), ascorbic acid (1.0 mg/mL), sodium ascorbate (1.0 mg/mL), and EDTA (1.0 μg/mL).
RC-101 concentration after exposure to preformulation conditions was analyzed by HPLC as previously described [11]. Briefly, the HPLC system (Waters Corporation, Milford, MA) was equipped with an autoinjector model 717, a quaternary pump model 600, and an ultraviolet (UV) detector model 2487 set up at 215 nm. Separation of RC-101 from degradant products was achieved using a Phenomenex Jupiter 5 μC5 300 Å (4.6 × 250 mm) column (Phenomenex, Torrance, CA) protected by a Widepore C5 (4 × 3.0 mm) guard cartridge (Phenomenex). The gradient consisted of mobile phase A (0.1% TFA in water (v/v)), and mobile phase B (0.07% TFA in acetonitrile (v/v)) pumped at a flow rate of 1.0 mL/min. […]
HPLC data obtained from the preformulation studies were expressed as the average percentage of the peak area from time 0 ± standard deviation, n = 3. Results were analyzed by one-way analysis of variance (ANOVA) with multiple comparisons of individual time points by using post hoc Bonferroni correction to detect significant differences under different conditions. […]

The source of these data is article PMC3199744, “Preformulation and stability in biological fluids of the retrocyclin RC-101, a potential anti-HIV topical microbicide” (AIDS Research and Therapy, 2011).

The structures appear in SMILES notation.

For the molecule `O=C(O)CN(CCN(CC(=O)O)CC(=O)O)CC(=O)O` [EDTA, Ethylenediamine tetraacetic acid], the toxic concentration in series [1] and in series [2] was at least 1% throughout. For the same molecule, the “protection of RC-101 against oxidation after exposure to H2O2” value in series [3] is “protection”.
